# Read-outs that look alike come from different tables or passages of the source.
# Assays:
# CDK9/Cyclin K = CDK9/Cyclin K (Homo sapiens, UniProt P50750); assay: NanoBRET live-cell target engagement, NanoLuc-CDK9/Cyclin K in HEK-293; assay type: binding; settings: 10µM
# CDK20/Cyclin H = CDK20/Cyclin H (Homo sapiens, UniProt Q8IZL9); assay: NanoBRET live-cell target engagement, NanoLuc-CDK20/Cyclin H in HEK-293; assay type: binding; settings: 10µM
# CDK12/Cyclin K = CDK12/Cyclin K (Homo sapiens, UniProt Q9NYV4); assay: NanoBRET live-cell target engagement, CDK12-NanoLuc/Cyclin K in HEK-293; assay type: binding
# CDK5/CDK5R1 = CDK5/CDK5R1 (Homo sapiens, UniProt Q00535); assay: NanoBRET live-cell target engagement, CDK5-NanoLuc/CDK5R1 in HEK-293; assay type: binding; settings: 10µM
# CDK11B/Cyclin L2 = CDK11B/Cyclin L2 (Homo sapiens, UniProt P21127); assay: NanoBRET live-cell target engagement, CDK11B-NanoLuc/Cyclin L2 in HEK-293; assay type: binding; settings: 10µM
# CDK4/Cyclin D1 = CDK4/Cyclin D1 (Homo sapiens, UniProt P11802); assay: NanoBRET live-cell target engagement, NanoLuc-CDK4/Cyclin D1 in HEK-293; assay type: binding; settings: 10µM
# CDK18/Cyclin Y = CDK18/Cyclin Y (Homo sapiens, UniProt Q07002); assay: NanoBRET live-cell target engagement, CDK18-NanoLuc/Cyclin Y in HEK-293; assay type: binding; settings: 10µM
# CDK15/Cyclin Y = CDK15/Cyclin Y (Homo sapiens, UniProt Q96Q40); assay: NanoBRET live-cell target engagement, NanoLuc-CDK15/Cyclin Y in HEK-293; assay type: binding; settings: 10µM
# CDK17/Cyclin Y = CDK17/Cyclin Y (Homo sapiens, UniProt Q00537); assay: NanoBRET live-cell target engagement, CDK17-NanoLuc/Cyclin Y in HEK-293; assay type: binding; settings: 10µM
# CDK11A/Cyclin L2 = target: T1, CDK11A/Cyclin L2 (Homo sapiens, UniProt Q9UQ88); assay: NanoBRET live-cell target engagement, CDK11A-NanoLuc/Cyclin L2 in HEK-293; assay type: binding
# T1 sequence (Q9UQ88 1-783): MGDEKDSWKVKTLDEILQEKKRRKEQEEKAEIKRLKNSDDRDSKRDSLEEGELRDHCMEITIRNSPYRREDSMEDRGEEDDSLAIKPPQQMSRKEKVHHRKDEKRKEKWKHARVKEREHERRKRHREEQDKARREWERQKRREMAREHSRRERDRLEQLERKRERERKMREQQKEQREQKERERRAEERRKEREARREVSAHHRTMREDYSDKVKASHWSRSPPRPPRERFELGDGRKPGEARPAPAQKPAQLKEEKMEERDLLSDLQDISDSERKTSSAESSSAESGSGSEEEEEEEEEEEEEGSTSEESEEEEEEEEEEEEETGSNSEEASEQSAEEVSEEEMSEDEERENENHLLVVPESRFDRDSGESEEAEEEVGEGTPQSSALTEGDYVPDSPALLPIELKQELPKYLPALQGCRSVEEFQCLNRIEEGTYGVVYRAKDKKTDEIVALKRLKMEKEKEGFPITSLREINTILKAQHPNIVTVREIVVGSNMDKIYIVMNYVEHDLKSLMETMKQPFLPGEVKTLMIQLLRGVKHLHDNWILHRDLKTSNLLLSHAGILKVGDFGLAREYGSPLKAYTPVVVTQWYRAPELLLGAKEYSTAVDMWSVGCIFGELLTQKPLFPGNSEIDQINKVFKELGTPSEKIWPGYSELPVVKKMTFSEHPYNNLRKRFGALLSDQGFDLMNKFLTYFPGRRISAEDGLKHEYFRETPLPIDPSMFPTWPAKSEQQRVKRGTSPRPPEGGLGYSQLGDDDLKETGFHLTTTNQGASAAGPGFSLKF
# CDK10/Cyclin L2 = CDK10/Cyclin L2 (Homo sapiens, UniProt Q15131); assay: NanoBRET live-cell target engagement, CDK10-NanoLuc/Cyclin L2 in HEK-293; settings: for IC50: read-out: CDK10/L2 IC50
# CDK1/Cyclin E1 = CDK1/Cyclin E1 (Homo sapiens, UniProt P06493); assay: NanoBRET live-cell target engagement, CDK1-NanoLuc/Cyclin E1 in HEK-293; assay type: binding; settings: 10µM
# CDK19/Cyclin C = CDK19/Cyclin C (Homo sapiens, UniProt Q9BWU1); assay: NanoBRET live-cell target engagement, NanoLuc-CDK19/Cyclin C in HEK-293; settings: 10µM
# CDK16/Cyclin Y = CDK16/Cyclin Y (Homo sapiens, UniProt Q00536); assay: NanoBRET live-cell target engagement, CDK16-NanoLuc/Cyclin Y in HEK-293; assay type: binding; settings: 10µM
# CDK6/Cyclin D1 = CDK6/Cyclin D1 (Homo sapiens, UniProt Q00534); assay: NanoBRET live-cell target engagement, NanoLuc-CDK6/Cyclin D1 in HEK-293; assay type: binding; settings: 10µM
# CDK8/Cyclin C = CDK8/Cyclin C (Homo sapiens, UniProt P49336); assay: NanoBRET live-cell target engagement, NanoLuc-CDK8/Cyclin C in HEK-293; assay type: binding; settings: 10µM
# CDK2/Cyclin E1 = CDK2/Cyclin E1 (Homo sapiens, UniProt P24941); assay: NanoBRET live-cell target engagement, CDK2-NanoLuc/Cyclin E1 in HEK-293; assay type: binding; settings: 10µM
# CDK13/Cyclin K = CDK13/Cyclin K (Homo sapiens, UniProt Q14004); assay: NanoBRET live-cell target engagement, CDK13-NanoLuc/Cyclin K in HEK-293; assay type: binding
# CDK14/Cyclin Y = CDK14/Cyclin Y (Homo sapiens, UniProt O94921); assay: NanoBRET live-cell target engagement, CDK14-NanoLuc/Cyclin Y in HEK-293; assay type: binding; settings: 10µM
# CDK4/Cyclin D1, sequence (P11802 whole entry): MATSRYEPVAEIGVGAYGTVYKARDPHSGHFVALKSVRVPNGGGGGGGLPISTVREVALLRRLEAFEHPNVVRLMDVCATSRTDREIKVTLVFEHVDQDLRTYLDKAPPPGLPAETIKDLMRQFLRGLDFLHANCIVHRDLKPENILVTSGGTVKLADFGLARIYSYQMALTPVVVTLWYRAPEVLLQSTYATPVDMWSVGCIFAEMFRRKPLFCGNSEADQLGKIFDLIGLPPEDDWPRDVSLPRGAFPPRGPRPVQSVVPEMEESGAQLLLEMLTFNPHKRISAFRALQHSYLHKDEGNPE
# CDK4/Cyclin D1, sequence (P24385 whole entry partner): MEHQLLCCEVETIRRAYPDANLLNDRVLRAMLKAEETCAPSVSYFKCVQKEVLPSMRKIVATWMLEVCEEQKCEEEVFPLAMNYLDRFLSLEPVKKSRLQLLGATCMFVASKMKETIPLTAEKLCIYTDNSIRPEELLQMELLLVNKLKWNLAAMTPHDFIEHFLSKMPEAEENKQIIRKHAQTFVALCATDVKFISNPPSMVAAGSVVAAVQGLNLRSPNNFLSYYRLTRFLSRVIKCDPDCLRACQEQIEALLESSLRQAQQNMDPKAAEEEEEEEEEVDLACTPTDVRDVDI
# CDK11B/Cyclin L2, sequence (P21127 1-782 isoform P21127-2): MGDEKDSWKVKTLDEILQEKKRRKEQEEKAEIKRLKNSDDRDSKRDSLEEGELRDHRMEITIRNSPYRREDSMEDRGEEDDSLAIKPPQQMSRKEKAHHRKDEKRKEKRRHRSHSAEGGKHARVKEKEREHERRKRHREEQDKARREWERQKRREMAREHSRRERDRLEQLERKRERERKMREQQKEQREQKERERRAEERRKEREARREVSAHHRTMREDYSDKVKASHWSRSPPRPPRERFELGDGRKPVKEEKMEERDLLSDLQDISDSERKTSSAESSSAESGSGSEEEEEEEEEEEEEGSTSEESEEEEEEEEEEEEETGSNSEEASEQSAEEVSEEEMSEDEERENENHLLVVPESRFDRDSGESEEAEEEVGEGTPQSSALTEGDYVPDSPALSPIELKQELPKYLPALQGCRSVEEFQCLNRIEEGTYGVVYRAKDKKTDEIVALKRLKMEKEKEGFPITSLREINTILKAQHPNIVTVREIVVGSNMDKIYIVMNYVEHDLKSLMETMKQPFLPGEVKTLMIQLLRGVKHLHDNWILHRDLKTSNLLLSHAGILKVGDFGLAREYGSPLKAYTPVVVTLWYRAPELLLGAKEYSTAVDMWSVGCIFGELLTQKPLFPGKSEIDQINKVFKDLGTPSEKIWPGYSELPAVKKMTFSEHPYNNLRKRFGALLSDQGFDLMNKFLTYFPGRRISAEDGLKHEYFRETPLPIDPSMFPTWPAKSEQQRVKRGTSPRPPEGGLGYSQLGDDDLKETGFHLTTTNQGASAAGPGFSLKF
# CDK15/Cyclin Y, sequence (Q96Q40 whole entry): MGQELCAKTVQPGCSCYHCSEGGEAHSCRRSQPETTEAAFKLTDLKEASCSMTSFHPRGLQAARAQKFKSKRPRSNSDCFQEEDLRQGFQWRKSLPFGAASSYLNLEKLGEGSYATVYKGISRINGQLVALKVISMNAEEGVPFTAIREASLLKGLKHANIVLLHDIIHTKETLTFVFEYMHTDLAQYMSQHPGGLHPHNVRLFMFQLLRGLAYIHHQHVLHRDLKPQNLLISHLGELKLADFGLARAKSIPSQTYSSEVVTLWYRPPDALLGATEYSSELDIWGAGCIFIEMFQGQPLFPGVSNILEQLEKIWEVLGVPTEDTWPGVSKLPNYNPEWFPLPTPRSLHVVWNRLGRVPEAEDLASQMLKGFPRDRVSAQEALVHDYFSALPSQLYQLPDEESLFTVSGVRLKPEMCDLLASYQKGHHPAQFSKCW
# CDK15/Cyclin Y, sequence (Q8ND76 whole entry partner): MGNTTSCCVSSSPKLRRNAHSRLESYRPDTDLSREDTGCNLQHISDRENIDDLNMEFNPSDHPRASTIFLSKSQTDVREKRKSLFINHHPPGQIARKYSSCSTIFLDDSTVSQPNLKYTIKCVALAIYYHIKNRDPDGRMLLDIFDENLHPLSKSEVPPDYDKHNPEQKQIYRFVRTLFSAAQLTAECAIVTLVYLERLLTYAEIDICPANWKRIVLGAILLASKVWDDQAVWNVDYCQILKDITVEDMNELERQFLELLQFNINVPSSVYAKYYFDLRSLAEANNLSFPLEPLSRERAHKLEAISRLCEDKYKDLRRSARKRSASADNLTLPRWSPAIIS
# CDK8/Cyclin C, sequence (P49336 whole entry): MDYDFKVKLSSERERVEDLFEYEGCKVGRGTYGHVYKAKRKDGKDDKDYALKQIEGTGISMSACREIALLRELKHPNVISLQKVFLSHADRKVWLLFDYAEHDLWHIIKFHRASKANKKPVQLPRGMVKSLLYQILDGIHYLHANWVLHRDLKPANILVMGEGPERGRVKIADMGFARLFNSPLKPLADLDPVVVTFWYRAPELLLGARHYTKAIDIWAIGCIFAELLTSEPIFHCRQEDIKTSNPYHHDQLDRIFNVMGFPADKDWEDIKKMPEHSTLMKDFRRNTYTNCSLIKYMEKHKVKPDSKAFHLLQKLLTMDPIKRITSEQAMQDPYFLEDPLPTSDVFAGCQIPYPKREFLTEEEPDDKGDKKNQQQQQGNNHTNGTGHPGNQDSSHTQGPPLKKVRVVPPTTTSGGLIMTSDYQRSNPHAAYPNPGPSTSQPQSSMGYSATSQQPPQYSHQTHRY
# CDK8/Cyclin C, sequence (P24863 whole entry partner): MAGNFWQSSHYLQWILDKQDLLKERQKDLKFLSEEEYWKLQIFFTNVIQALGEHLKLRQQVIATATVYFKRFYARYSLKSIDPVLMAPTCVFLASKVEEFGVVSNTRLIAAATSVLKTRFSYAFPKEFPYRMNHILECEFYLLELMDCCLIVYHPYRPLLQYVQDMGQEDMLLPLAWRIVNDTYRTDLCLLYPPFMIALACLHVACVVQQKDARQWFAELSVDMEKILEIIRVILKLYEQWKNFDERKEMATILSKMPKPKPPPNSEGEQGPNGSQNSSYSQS
# CDK1/Cyclin E1, sequence (P06493 whole entry): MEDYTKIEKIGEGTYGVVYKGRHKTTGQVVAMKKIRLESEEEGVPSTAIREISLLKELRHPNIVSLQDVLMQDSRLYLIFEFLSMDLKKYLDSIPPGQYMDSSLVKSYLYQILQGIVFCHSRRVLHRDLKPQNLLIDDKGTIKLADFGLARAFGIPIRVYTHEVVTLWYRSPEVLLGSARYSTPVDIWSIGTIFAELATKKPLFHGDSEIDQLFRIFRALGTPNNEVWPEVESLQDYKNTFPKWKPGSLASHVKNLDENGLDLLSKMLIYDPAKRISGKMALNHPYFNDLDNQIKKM
# CDK1/Cyclin E1, sequence (P24864 whole entry partner): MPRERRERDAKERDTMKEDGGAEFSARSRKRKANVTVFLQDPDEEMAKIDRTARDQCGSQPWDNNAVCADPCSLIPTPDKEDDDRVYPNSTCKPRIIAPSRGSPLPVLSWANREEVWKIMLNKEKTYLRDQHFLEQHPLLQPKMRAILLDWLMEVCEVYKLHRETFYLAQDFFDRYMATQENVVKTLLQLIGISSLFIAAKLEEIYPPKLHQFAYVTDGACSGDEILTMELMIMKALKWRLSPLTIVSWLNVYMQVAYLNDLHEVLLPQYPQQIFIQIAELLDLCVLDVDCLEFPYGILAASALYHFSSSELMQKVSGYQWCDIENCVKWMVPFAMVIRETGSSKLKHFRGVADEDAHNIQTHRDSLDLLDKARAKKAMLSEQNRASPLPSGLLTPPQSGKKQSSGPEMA
# CDK10/Cyclin L2, sequence (Q15131 whole entry): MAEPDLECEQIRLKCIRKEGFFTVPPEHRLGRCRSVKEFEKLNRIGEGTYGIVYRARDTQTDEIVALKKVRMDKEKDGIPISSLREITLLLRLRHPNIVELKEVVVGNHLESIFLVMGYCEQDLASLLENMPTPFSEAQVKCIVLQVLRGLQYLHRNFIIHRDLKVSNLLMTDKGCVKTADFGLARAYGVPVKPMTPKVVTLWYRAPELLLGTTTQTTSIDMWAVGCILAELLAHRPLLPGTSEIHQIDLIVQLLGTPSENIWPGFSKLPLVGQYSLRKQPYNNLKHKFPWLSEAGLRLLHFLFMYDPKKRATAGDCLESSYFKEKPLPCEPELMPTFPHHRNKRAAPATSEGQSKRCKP
# CDK19/Cyclin C, sequence (Q9BWU1 whole entry): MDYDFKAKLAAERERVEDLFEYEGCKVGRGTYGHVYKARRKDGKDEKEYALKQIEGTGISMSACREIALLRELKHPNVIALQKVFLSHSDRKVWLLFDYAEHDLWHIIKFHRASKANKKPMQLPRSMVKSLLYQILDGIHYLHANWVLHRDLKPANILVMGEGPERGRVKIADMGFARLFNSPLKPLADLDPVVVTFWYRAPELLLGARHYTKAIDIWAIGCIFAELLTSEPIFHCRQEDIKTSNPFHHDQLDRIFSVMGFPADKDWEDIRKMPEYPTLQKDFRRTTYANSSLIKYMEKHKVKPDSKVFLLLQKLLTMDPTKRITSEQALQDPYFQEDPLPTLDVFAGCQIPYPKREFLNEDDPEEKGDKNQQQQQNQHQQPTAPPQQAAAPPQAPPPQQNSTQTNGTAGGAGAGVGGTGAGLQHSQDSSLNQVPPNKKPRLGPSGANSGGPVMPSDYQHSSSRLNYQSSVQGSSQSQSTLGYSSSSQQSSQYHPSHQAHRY
# CDK19/Cyclin C, sequence (P24863 whole entry partner): as the sequence (P24863 whole entry partner) above
# CDK6/Cyclin D1, sequence (Q00534 whole entry): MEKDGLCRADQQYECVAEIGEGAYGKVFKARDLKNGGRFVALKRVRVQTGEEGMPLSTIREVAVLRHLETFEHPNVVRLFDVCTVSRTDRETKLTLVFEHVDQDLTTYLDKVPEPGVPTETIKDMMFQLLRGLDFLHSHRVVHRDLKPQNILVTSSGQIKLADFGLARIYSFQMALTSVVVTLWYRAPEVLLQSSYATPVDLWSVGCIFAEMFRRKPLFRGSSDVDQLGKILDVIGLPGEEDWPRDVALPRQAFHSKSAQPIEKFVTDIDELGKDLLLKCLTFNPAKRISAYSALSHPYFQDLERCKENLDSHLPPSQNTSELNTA
# CDK6/Cyclin D1, sequence (P24385 whole entry partner): as the sequence (P24385 whole entry partner) above
compound,measurement,setting,value
CN(C)C/C=C/C(=O)Nc1ccc(C(=O)Nc2cccc(Nc3ncc(Cl)c(-c4c[nH]c5ccccc45)n3)c2)cc1 [THZ1],CDK9/K Inhibition at 10µM (%),CDK9/Cyclin K; average of experiments,70.0%
same,CDK9/K Inhibition at 10µM (%),CDK9/Cyclin K; independent experiment 1,44.1%
same,CDK9/K Inhibition at 10µM (%),CDK9/Cyclin K; independent experiment 2,96.0%
same,CDK20/H Inhibition at 10µM (%),CDK20/Cyclin H; independent experiment 1,63.8%
same,CDK20/H Inhibition at 10µM (%),CDK20/Cyclin H; independent experiment 2,90.1%
same,CDK12/K Inhibition at 10µM (%),CDK12/Cyclin K; average of experiments,45.5%
same,CDK12/K Inhibition at 10µM (%),CDK12/Cyclin K; independent experiment 1,26.4%
same,CDK12/K Inhibition at 10µM (%),CDK12/Cyclin K; independent experiment 2,64.6%
same,CDK12 occupancy at 10 µM,"CDK12/Cyclin K; primary screen, live HEK-293",~50%
same,CDK5/CDK5R1 Inhibition at 10µM (%),CDK5/CDK5R1; average of experiments,42.5%
same,CDK5/CDK5R1 Inhibition at 10µM (%),CDK5/CDK5R1; independent experiment 1,19.2%
same,CDK5/CDK5R1 Inhibition at 10µM (%),CDK5/CDK5R1; independent experiment 2,65.8%
same,CDK11b/L2 Inhibition at 10µM (%),CDK11B/Cyclin L2; average of experiments,34.5%
same,CDK11b/L2 Inhibition at 10µM (%),CDK11B/Cyclin L2; independent experiment 1,13.3%
same,CDK11b/L2 Inhibition at 10µM (%),CDK11B/Cyclin L2; independent experiment 2,55.7%
same,CDK4/D1 Inhibition at 10µM (%),CDK4/Cyclin D1; average of experiments,53.8%
same,CDK4/D1 Inhibition at 10µM (%),CDK4/Cyclin D1; independent experiment 1,13.3%
same,CDK4/D1 Inhibition at 10µM (%),CDK4/Cyclin D1; independent experiment 2,94.2%
same,CDK18/Y Inhibition at 10µM (%),CDK18/Cyclin Y; average of experiments,48.6%
same,CDK18/Y Inhibition at 10µM (%),CDK18/Cyclin Y; independent experiment 1,73.0%
same,CDK18/Y Inhibition at 10µM (%),CDK18/Cyclin Y; independent experiment 2,24.3%
same,CDK15/Y Inhibition at 10µM (%),CDK15/Cyclin Y; average of experiments,64.9%
same,CDK15/Y Inhibition at 10µM (%),CDK15/Cyclin Y; independent experiment 1,40.7%
same,CDK15/Y Inhibition at 10µM (%),CDK15/Cyclin Y; independent experiment 2,89.2%
same,CDK17/Y Inhibition at 10µM (%),CDK17/Cyclin Y; average of experiments,50.4%
same,CDK17/Y Inhibition at 10µM (%),CDK17/Cyclin Y; independent experiment 1,73.0%
same,CDK17/Y Inhibition at 10µM (%),CDK17/Cyclin Y; independent experiment 2,27.8%
same,CDK11a/L2 Inhibition at 10µM (%),CDK11A/Cyclin L2; average of experiments,42.5%
same,CDK11a/L2 Inhibition at 10µM (%),CDK11A/Cyclin L2; independent experiment 1,8.0%
same,CDK11a/L2 Inhibition at 10µM (%),CDK11A/Cyclin L2; independent experiment 2,77.1%
same,IC50,"CDK11A/Cyclin L2; independent experiment 1, read-out: CDK11a/L2 IC50",450 nM
same,IC50,"CDK11A/Cyclin L2; independent experiment 2, read-out: CDK11a/L2 IC50",230 nM
same,IC50,"CDK11A/Cyclin L2; independent experiment 3, read-out: CDK11a/L2 IC50",218 nM
same,IC50,"CDK11A/Cyclin L2; live HEK-293, 2 h, mean ± S.E.M. (n=3) or mean (n=2), read-out: IC50 for CDK/cyclin complexes, CDK11a/L2",300 nM
same,CDK10/L2 Inhibition at 10µM (%),CDK10/Cyclin L2; average of experiments,48.0%
same,CDK10/L2 Inhibition at 10µM (%),CDK10/Cyclin L2; independent experiment 1,11.4%
same,CDK10/L2 Inhibition at 10µM (%),CDK10/Cyclin L2; independent experiment 2,84.6%
same,IC50,CDK10/Cyclin L2; average (± SEM where n=3),1000 ± 300 nM
same,IC50,CDK10/Cyclin L2; independent experiment 1,660 nM
same,IC50,CDK10/Cyclin L2; independent experiment 2,790 nM
same,IC50,CDK10/Cyclin L2; independent experiment 3,1500 nM
same,CDK1/E1 Inhibition at 10µM (%),CDK1/Cyclin E1; average of experiments,91.9%
same,CDK1/E1 Inhibition at 10µM (%),CDK1/Cyclin E1; independent experiment 1,87.2%
same,CDK1/E1 Inhibition at 10µM (%),CDK1/Cyclin E1; independent experiment 2,96.6%
same,CDK19/C Inhibition at 10µM (%),CDK19/Cyclin C; average of experiments,66.6%
same,CDK19/C Inhibition at 10µM (%),CDK19/Cyclin C; independent experiment 1,44.1%
same,CDK19/C Inhibition at 10µM (%),CDK19/Cyclin C; independent experiment 2,89.1%
same,CDK16/Y Inhibition at 10µM (%),CDK16/Cyclin Y; independent experiment 1,74.4%
same,CDK16/Y Inhibition at 10µM (%),CDK16/Cyclin Y; independent experiment 2,11.2%
same,CDK6/D1 Inhibition at 10µM (%),CDK6/Cyclin D1; average of experiments,73.8%
same,CDK6/D1 Inhibition at 10µM (%),CDK6/Cyclin D1; independent experiment 1,53.8%
same,CDK6/D1 Inhibition at 10µM (%),CDK6/Cyclin D1; independent experiment 2,93.8%
same,CDK8/C Inhibition at 10µM (%),CDK8/Cyclin C; average of experiments,62.9%
same,CDK8/C Inhibition at 10µM (%),CDK8/Cyclin C; independent experiment 1,34.6%
same,CDK8/C Inhibition at 10µM (%),CDK8/Cyclin C; independent experiment 2,91.2%
same,CDK2/E1 Inhibition at 10µM (%),CDK2/Cyclin E1; average of experiments,16.1%
same,CDK2/E1 Inhibition at 10µM (%),CDK2/Cyclin E1; independent experiment 1,27.6%
same,CDK2/E1 Inhibition at 10µM (%),CDK2/Cyclin E1; independent experiment 2,4.6%
same,CDK13/K Inhibition at 10µM (%),CDK13/Cyclin K; average of experiments,48.1%
same,CDK13/K Inhibition at 10µM (%),CDK13/Cyclin K; independent experiment 1,34.3%
same,CDK13/K Inhibition at 10µM (%),CDK13/Cyclin K; independent experiment 2,62.0%
same,CDK13 occupancy at 10 µM,"CDK13/Cyclin K; primary screen, live HEK-293",~50%
same,CDK14/Y Inhibition at 10µM (%),CDK14/Cyclin Y; average of experiments,33.1%
same,CDK14/Y Inhibition at 10µM (%),CDK14/Cyclin Y; independent experiment 1,6.6%
same,CDK14/Y Inhibition at 10µM (%),CDK14/Cyclin Y; independent experiment 2,59.6%

# Source: PMC7265341, “Quantifying CDK inhibitor selectivity in live cells” (Nature Communications, 2020)
